# Test results taken from PubChem BioAssay AID1259407 (Chemical Carcinogenesis Research Information System (CCRIS), 2018).
# Calls of active or inactive are those of the source. The rule behind the calls is not given here.
# Tested on: CCRIS mutagenicity, Ames/micronucleus/aberration tests
# Assay: CCRIS mutagenicity studies
# [1] = Test System: AMES SALMONELLA TYPHIMURIUM, Strain/Indicator: TA98, Metabolic Activation: NONE, Method: PREINCUBATION
# [2] = Test System: AMES SALMONELLA TYPHIMURIUM, Strain/Indicator: TA98, Metabolic Activation: RAT, LIVER, S-9, AROCLOR 1254, Method: STANDARD PLATE
# [3] = Test System: AMES SALMONELLA TYPHIMURIUM, Strain/Indicator: TA100, Metabolic Activation: RAT, LIVER, S-9, AROCLOR 1254, Method: STANDARD PLATE
# [4] = Test System: AMES SALMONELLA TYPHIMURIUM, Strain/Indicator: TA100, Metabolic Activation: NONE, Method: STANDARD PLATE
# [5] = Test System: AMES SALMONELLA TYPHIMURIUM, Strain/Indicator: TA1537, Metabolic Activation: NONE, Method: STANDARD PLATE
# [6] = Test System: AMES SALMONELLA TYPHIMURIUM, Strain/Indicator: TA98, Metabolic Activation: NONE, Method: STANDARD PLATE
smiles,measurement,setting,value
CCCCCCCCOc1ccc(C(=O)O)cc1,mutagenic call,"Test System: AMES SALMONELLA TYPHIMURIUM, Strain/Indicator: TA97, Metabolic Activation: HAMSTER, LIVER, S-9, AROCLOR 1254 (10%), Method: PREINCUBATION",inactive; negative
same,mutagenic call,"Test System: AMES SALMONELLA TYPHIMURIUM, Strain/Indicator: TA97, Metabolic Activation: HAMSTER, LIVER, S-9, AROCLOR 1254 (30%), Method: PREINCUBATION",inactive; negative
same,mutagenic call,"Test System: AMES SALMONELLA TYPHIMURIUM, Strain/Indicator: TA97, Metabolic Activation: NONE, Method: PREINCUBATION",inactive; negative
same,mutagenic call,"Test System: AMES SALMONELLA TYPHIMURIUM, Strain/Indicator: TA97, Metabolic Activation: RAT, LIVER, S-9, AROCLOR 1254 (10%), Method: PREINCUBATION",inactive; negative
same,mutagenic call,"Test System: AMES SALMONELLA TYPHIMURIUM, Strain/Indicator: TA97, Metabolic Activation: RAT, LIVER, S-9, AROCLOR 1254 (30%), Method: PREINCUBATION",inactive; negative
same,mutagenic call,"Test System: AMES SALMONELLA TYPHIMURIUM, Strain/Indicator: TA98, Metabolic Activation: HAMSTER, LIVER, S-9, AROCLOR 1254 (10%), Method: PREINCUBATION",inactive; negative
same,mutagenic call,"Test System: AMES SALMONELLA TYPHIMURIUM, Strain/Indicator: TA98, Metabolic Activation: HAMSTER, LIVER, S-9, AROCLOR 1254 (30%), Method: PREINCUBATION",inactive; negative
same,mutagenic call,[1],inactive; negative
same,mutagenic call,"Test System: AMES SALMONELLA TYPHIMURIUM, Strain/Indicator: TA98, Metabolic Activation: RAT, LIVER, S-9, AROCLOR 1254 (10%), Method: PREINCUBATION",inactive; negative
same,mutagenic call,"Test System: AMES SALMONELLA TYPHIMURIUM, Strain/Indicator: TA98, Metabolic Activation: RAT, LIVER, S-9, AROCLOR 1254 (30%), Method: PREINCUBATION",inactive; negative
same,mutagenic call,"Test System: AMES SALMONELLA TYPHIMURIUM, Strain/Indicator: TA100, Metabolic Activation: HAMSTER, LIVER, S-9, AROCLOR 1254 (10%), Method: PREINCUBATION",inactive; negative
same,mutagenic call,"Test System: AMES SALMONELLA TYPHIMURIUM, Strain/Indicator: TA100, Metabolic Activation: HAMSTER, LIVER, S-9, AROCLOR 1254 (30%), Method: PREINCUBATION",inactive; negative
same,mutagenic call,"Test System: AMES SALMONELLA TYPHIMURIUM, Strain/Indicator: TA100, Metabolic Activation: NONE, Method: PREINCUBATION",inactive; negative
same,mutagenic call,"Test System: AMES SALMONELLA TYPHIMURIUM, Strain/Indicator: TA100, Metabolic Activation: RAT, LIVER, S-9, AROCLOR 1254 (10%), Method: PREINCUBATION",inactive; negative
same,mutagenic call,"Test System: AMES SALMONELLA TYPHIMURIUM, Strain/Indicator: TA100, Metabolic Activation: RAT, LIVER, S-9, AROCLOR 1254 (30%), Method: PREINCUBATION",inactive; negative
same,mutagenic call,"Test System: AMES SALMONELLA TYPHIMURIUM, Strain/Indicator: TA1535, Metabolic Activation: HAMSTER, LIVER, S-9, AROCLOR 1254 (10%), Method: PREINCUBATION",inactive; negative
same,mutagenic call,"Test System: AMES SALMONELLA TYPHIMURIUM, Strain/Indicator: TA1535, Metabolic Activation: HAMSTER, LIVER, S-9, AROCLOR 1254 (30%), Method: PREINCUBATION",inactive; negative
same,mutagenic call,"Test System: AMES SALMONELLA TYPHIMURIUM, Strain/Indicator: TA1535, Metabolic Activation: NONE, Method: PREINCUBATION",inactive; negative
same,mutagenic call,"Test System: AMES SALMONELLA TYPHIMURIUM, Strain/Indicator: TA1535, Metabolic Activation: RAT, LIVER, S-9, AROCLOR 1254 (10%), Method: PREINCUBATION",inactive; negative
same,mutagenic call,"Test System: AMES SALMONELLA TYPHIMURIUM, Strain/Indicator: TA1535, Metabolic Activation: RAT, LIVER, S-9, AROCLOR 1254 (30%), Method: PREINCUBATION",inactive; negative
Cc1cc2c(c3ccc4ccccc4c13)CCC2=O,mutagenic call,[2],active; positive
same,mutagenic call,"Test System: AMES SALMONELLA TYPHIMURIUM, Strain/Indicator: TA100, Metabolic Activation: RAT, LIVER, MICROSOMES, 15,16-DIHYDRO-11-METHYL-17(H)-CYCLOPENTA[A] PHENANTHREN-17-ONE, Method: STANDARD PLATE",inactive; negative
same,mutagenic call,"Test System: AMES SALMONELLA TYPHIMURIUM, Strain/Indicator: TA100, Metabolic Activation: RAT, LIVER, MICROSOMES, BENZO[A]PYRENE, Method: STANDARD PLATE",active; positive
same,mutagenic call,"Test System: AMES SALMONELLA TYPHIMURIUM, Strain/Indicator: TA100, Metabolic Activation: RAT, LIVER, MICROSOMES, CLOFIBRATE, Method: STANDARD PLATE",inactive; negative
same,mutagenic call,"Test System: AMES SALMONELLA TYPHIMURIUM, Strain/Indicator: TA100, Metabolic Activation: RAT, LIVER, MICROSOMES, DEXAMETHASONE, Method: STANDARD PLATE",inactive; negative
same,mutagenic call,"Test System: AMES SALMONELLA TYPHIMURIUM, Strain/Indicator: TA100, Metabolic Activation: RAT, LIVER, MICROSOMES, ISONIAZID, Method: STANDARD PLATE",inactive; negative
same,mutagenic call,"Test System: AMES SALMONELLA TYPHIMURIUM, Strain/Indicator: TA100, Metabolic Activation: RAT, LIVER, MICROSOMES, PHENOBARBITONE, Method: STANDARD PLATE",inactive; negative
same,mutagenic call,"Test System: AMES SALMONELLA TYPHIMURIUM, Strain/Indicator: TA100, Metabolic Activation: RAT, LIVER, MICROSOMES, Method: STANDARD PLATE",inactive; negative
same,mutagenic call,[3],active; positive
same,mutagenic call,"Test System: AMES SALMONELLA TYPHIMURIUM, Strain/Indicator: TA1538, Metabolic Activation: RAT, LIVER, S-9, AROCLOR 1254, Method: STANDARD PLATE",active; positive
Cc1ccc([N+](=O)[O-])c(S(=O)(=O)O)c1[N+](=O)[O-],mutagenic call,"End Point: In vitro chromosomal aberrations, Test System: V79 Chinese hamster fibroblasts, Metabolic Activation: None",inactive; negative
same,mutagenic call,"Test System: Ames Salmonella typhimurium, Strain/Indicator: TA98, Metabolic Activation: None, Method: Standard plate",inactive; negative
same,mutagenic call,"Test System: Ames Salmonella typhimurium, Strain/Indicator: TA98, Metabolic Activation: Rat, Liver, S-9, Method: Standard plate",inactive; negative
same,mutagenic call,"Test System: Ames Salmonella typhimurium, Strain/Indicator: TA100, Metabolic Activation: None, Method: Standard plate",inactive; negative
same,mutagenic call,"Test System: Ames Salmonella typhimurium, Strain/Indicator: TA100, Metabolic Activation: Rat, Liver, S-9, Method: Standard plate",inactive; negative
O=[N+]([O-])c1cc(-c2cccc([N+](=O)[O-])c2O)ccc1O,mutagenic call,[1],inactive; negative
CCCCC(=O)Nc1snc2ccc(Cl)cc12,mutagenic call,[4],inactive; negative
same,mutagenic call,"Test System: AMES SALMONELLA TYPHIMURIUM, Strain/Indicator: TA100, Metabolic Activation: S-9, Method: STANDARD PLATE",inactive; negative
same,mutagenic call,[5],inactive; negative
same,mutagenic call,"Test System: AMES SALMONELLA TYPHIMURIUM, Strain/Indicator: TA1537, Metabolic Activation: S-9, Method: STANDARD PLATE",inactive; negative
CCc1ccc2c(c1[N+](=O)[O-])C(=O)c1ccccc1C2=O,mutagenic call,[6],inactive; negative
same,mutagenic call,[4],inactive; negative
same,mutagenic call,[3],active; positive
same,mutagenic call,"Test System: AMES SALMONELLA TYPHIMURIUM, Strain/Indicator: TA1535, Metabolic Activation: NONE, Method: STANDARD PLATE",inactive; negative
same,mutagenic call,"Test System: AMES SALMONELLA TYPHIMURIUM, Strain/Indicator: TA1535, Metabolic Activation: RAT, LIVER, S-9, AROCLOR 1254, Method: STANDARD PLATE",inactive; negative
same,mutagenic call,[5],inactive; negative
same,mutagenic call,"Test System: AMES SALMONELLA TYPHIMURIUM, Strain/Indicator: TA1538, Metabolic Activation: NONE, Method: STANDARD PLATE",inactive; negative
COP(=O)(OC)SC,mutagenic call,"Test System: AMES SALMONELLA TYPHIMURIUM, Strain/Indicator: TA97, Metabolic Activation: NONE, Method: STANDARD PLATE",inactive; negative
same,mutagenic call,"Test System: AMES SALMONELLA TYPHIMURIUM, Strain/Indicator: TA97, Metabolic Activation: RAT, LIVER, S-9, AROCLOR 1254, Method: PREINCUBATION",inactive; negative
same,mutagenic call,"Test System: AMES SALMONELLA TYPHIMURIUM, Strain/Indicator: TA97, Metabolic Activation: RAT, LIVER, S-9, AROCLOR 1254, Method: STANDARD PLATE",inactive; negative
same,mutagenic call,[6],inactive; negative
same,mutagenic call,"Test System: AMES SALMONELLA TYPHIMURIUM, Strain/Indicator: TA98, Metabolic Activation: RAT, LIVER, S-9, AROCLOR 1254, Method: PREINCUBATION",inactive; negative
same,mutagenic call,[2],inactive; negative
same,mutagenic call,[4],inactive; negative
same,mutagenic call,"Test System: AMES SALMONELLA TYPHIMURIUM, Strain/Indicator: TA100, Metabolic Activation: RAT, LIVER, S-9, AROCLOR 1254, Method: PREINCUBATION",inactive; negative
same,mutagenic call,[3],inactive; negative
